Results reported in article PMC11357256, “Selectivity Screening and Structure–Cytotoxic Activity Observations of Selected Oleanolic Acid (OA)-Type Saponins from the Amaranthaceae Family on a Wiade Panel of Human Cancer Cell Lines” (Molecules, 2024).

Tests used:
A375 = experiment: MTT cell viability assay, A375 malignant melanoma cells; format: cell-based, human; conditions: for IC50: Homo sapiens, A-375
From the text: (§1) Cell lines used in the study were grouped as follows: skin panel (melanomas: HTB140, derived from metastatic site: lymph node, ATCC Hs 294 T; malignant A375, ATCC CRL-1619; stage I primary WM793, RRID:CVCL 8787; skin keratinocytes HaCaT); prostate panel (prostate carcinomas: Du145, derived from metastatic site: brain, ATCC HTB-81; grade IV PC3, derived from metastatic site: bone, ATCC CRL-1435, LNCaP, derived from the metastatic site: lymph node, ATCC CRL-1740; prostate epithelial, PNT2, ECACC 95012613); gastrointestinal panel (colorectal adenocarcinomas: Caco2, ATCC HTB-37, HT29, ATCC HTB-38, DLD-1, ATCC CCL-221, HCT116, ATCC CCL-247, and colon epithelial cells CCD 841 CoN, ATCC CRL-1790; hepatocellular carcinoma HepG2, ATCC HB-8065); thyroid panel (follicular thyroid carcinoma FTC133, ECACC 9406090, undifferentiated thyroid carcinoma 8505C, ECACC 94090184, papillary thyroid carcinoma TPC-1, SCC147, normal thyroid follicular epithelial Nthy-ori 3–1, ECACC 90011609); and breast panel (ER-positive breast adenocarcinoma MCF7, ATCC HTB-22; ER-negative breast adenocarcinoma MDA-MB-231, ATCC HTB-26; breast epithelial MCF10A, ATCC CRL-10317). Cells were grown under standard conditions (37 °C, 5% CO2, relative humidity), and culture media (DMEM/F12 for PNT2, WM 793, HT29, PC3, FTC133, 8505 C, MDA-MB-231, TPC-1; DMEM Low Glucose for DU145; DMEM High Glucose for HTB140, A375, HaCaT; MEM with NEAA for Caco2 and MCF7; RPMI1640 with sodium pyruvate for LNCaP; DMEM/F12 with 20 ng/mL epidermal growth factor (EGF), 10 μg/mL insulin, 0.5 μg/mL hydrocortisone, 100 ng/mL cholera toxin) for MCF10A) supplemented with 10% fetal bovine serum (FBS) or 5% donor horse serum for MCF10A, and 1% antibiotics solution (10,000 U penicillin and 10 mg streptomycin/mL) […], as previously described. All cell lines, culture media, and supplements were from Sigma-Aldrich (Germany).
(§2) The cells were seeded in 96-well plates (1.5 × 10^4 cells/well). After 24 h, fresh medium was added, containing the tested compounds (0.5–100 μg/mL) and incubated for 24 or 48 h. Cell viability was determined by MTT assay, according to the manufacturer’s instructions, as described previously. Each experiment was performed in triplicate. The absorbance was measured at 570 nm using a Biotek Synergy microplate reader (BioTek Instruments Inc., Winooski, VT, USA). Cell viability was expressed as a percent of control (untreated cells). Doxorubicin was used as a reference drug.
The selectivity index (SI) was calculated from the following formula:SI = IC50 of compound in a normal cell line/IC50 of compound in cancer cell line.IC50, half maximal inhibitory concentration, is a concentration required to kill 50% of the cells.

MCF10A = experiment: MTT cell viability assay, MCF10A normal breast epithelial cells; format: cell-based; conditions: Homo sapiens, MCF-10A
From the text: as §1, §2

HT29 = experiment: MTT cell viability assay, HT29 colorectal adenocarcinoma cells; format: cell-based; conditions: Homo sapiens, HT-29
From the text: as §1, §2

## CC1(C)CCC2(C(=O)O)CCC3(C)C(=CCC4C5(C)CCC(OC6OC(C(=O)O)C(O)C(O)C6O)C(C)(C)C5CCC43C)C2C1 [CE, oleanolic acid-3-O-β-D-glucuronopyranoside]
A375; A375, 24 h
  IC50: 1.8 µg/mL
A375; A375, 48 h
  IC50: 0.8 µg/mL
A375; IC50 HaCaT / IC50 A375, 24 h
  Selectivity Index (SI): 2.9
A375; IC50 HaCaT / IC50 A375, 48 h
  Selectivity Index (SI): 2.6
MCF10A; 24 h
  IC50: > 100 µg/mL
MCF10A; 48 h
  IC50: > 100 µg/mL
HT29; HT29, 24 h
  IC50: 4.5 µg/mL
HT29; HT29, 48 h
  IC50: 2 µg/mL
